# Measured values published in patent US10647675B2 (priority 2015, dated 2020).
# How the values were obtained:
# [1] = system: Trichophyton rubrum KD-1130; assay: Antifungal activity evaluation test: minimum inhibitory concentration (MIC), broth dilution by reference to CLSI M38-A2; assay type: cell-based; settings: KD1130, read-out: MIC (T. rubrum)
# Outline: (§1)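 Broth microdilution after CLSI M38-A2: 2-fold DMSO dilution series in MOPS-buffered RPMI 1640 pH 7.0, inoculum 2×10^3 cells/mL final. Incubated 35° C for 4 days; MIC (μg/mL) is lowest concentration giving visually ≥80% growth inhibition versus growth control.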
# [2] = system: Trichophyton mentagrophytes SM-110; assay: as above; assay type: cell-based; settings: SM110, read-out: MIC (T. menta.)
# Outline: as §1
# [3] = Nail permeability test through human nail using Franz cell; assay type: in vitro ADME; settings: 5% in propylene glycol:ethanol (1:4), 32° C.
# Description: Permeability through human nail was measured by the method shown below using Franz cell. • Test Preparation: A test compound was dissolved in a propylene glycol:ethanol (1:4) mixed solution at a concentration of 5% to give a test preparation. As control compounds terbinafine and amorolfine were used. • (1) Human nail (thickness 300-500 μm) was fixed using a nail adapter for Franz cell, and mounted on Franz cell. • (2) The receptor chamber of the Franz cell was filled with phosphate buffer, and placed in a thermostatic chamber at 32° C. • (3) A test preparation was applied to the aforementioned human nail at 61 μL/cm^2, after which a receptor solution was collected over days, and the concentration of the test compound in the receptor was measured by a liquid chromatography mass spectrometry method (LC/MS/MS). The cumulative amount of drug permeation (μg/cm^2) was calculated from the measured drug concentration in the receptor. A cumulative amount of drug permeation relative to the time after start of the test was plotted and the slope at final 4 time points was taken as Flux (μg/cm^2/day). The abbreviations in the Table mean the following compounds • TBF: terbinafine • AMF: amorolfine
Structure (SMILES),MIC [1] [mg/L],MIC [2] [mg/L],nail permeability (Flux) [3]
"CCC(C)(C)c1ccc(CC(C)CN2C[C@@H](C)O[C@@H](C)C2)cc1 (stereo partly shown) [AMF, amorolfine, reference compound]",≤ 0.1,≤ 0.1,D (D: <0.001)
"COc1ncncc1-c1cccnc1Oc1ccc2c(c1)CCCC2 [I-271, 4′-methoxy-5-{2-[(5,6,7,8-tetrahydronaphthalen-2-yl)oxy]pyridin-3-yl}pyrimidine]",≤ 0.1,≤ 0.1,
"COc1ncccc1-c1cccnc1Oc1ccc(C(C)(F)F)nc1 [I-88, 2-{[6-(1,1-difluoroethyl)pyridin-3-yl]oxy}-2′-methoxy-3,3′-bipyridine]",≤ 0.1,≤ 0.1,
"FC(F)(F)c1ccc(Oc2ncccc2-c2cccc3c2OCC3)cn1 [I-35, 3-(2,3-dihydrobenzofuran-7-yl)-2-{[6-(trifluoromethyl)pyridin-3-yl]oxy}pyridine]",≤ 0.1,≤ 0.1,
"CCOCC(C)(C)c1ccc(Oc2ncccc2-c2cccnc2OC)cc1 [I-388, 2-[4-(1-ethoxy-2-methylpropan-2-yl)phenoxy]-2′-methoxy-3,3′-bipyridine]",≤ 0.1,≤ 0.1,
Cc1nc(C)c(-c2cccnc2Oc2ccc(C(F)(F)F)cc2)s1 [I-342],0.2 to 0.78,0.2 to 0.78,
"COc1ncc(C)cc1-c1cccnc1Oc1ccc(C(F)(F)F)nc1 [I-30, 2-methoxy-5-methyl-2′-{[6-(trifluoromethyl)pyridin-3-yl]oxy}-3,3′-bipyridine]",≤ 0.1,≤ 0.1,
Cc1ccncc1-c1cccnc1Oc1ccc(-c2ccncc2)cc1 [I-430],≤ 0.1,≤ 0.1,
"COc1ccncc1-c1cc(F)cnc1Oc1ccc(C(F)(F)F)cc1 [I-216, 5-fluoro-4′-methoxy-2-[4-(trifluoromethyl)phenoxy]-3,3′-bipyridine]",≤ 0.1,≤ 0.1,
"COc1ccccc1-c1cccnc1Oc1ccc(C(F)(F)CN(C)C)nc1 [I-147, 2,2-difluoro-2-(5-{[3-(2-methoxyphenyl)pyridin-2-yl]oxy}-2-yl)-N,N-dimethylethanamine]",0.2 to 0.78,≤ 0.1,
"CCc1ccc(Oc2ncccc2-c2ccncc2OC)cc1 [I-281, 2-(4-ethylphenoxy)-3′-methoxy-3,4′-bipyridine]",≤ 0.1,≤ 0.1,
"CCc1ccc(Oc2ncccc2-c2cncc(Br)c2OC)cc1 [I-285, 5′-bromo-2-(4-ethylphenoxy)-4′-methoxy-3,3′-bipyridine]",≤ 0.1,≤ 0.1,
"COCC(F)(F)c1ccc(Oc2ncccc2-c2cccc3cccnc23)cn1 [I-169, 8-(2-{[6-(1,1-difluoro-2-methoxyethyl)pyridin-3-yl]oxy}pyridin-3-yl)quinoline]",0.2 to 0.78,0.2 to 0.78,
CCOC(=O)c1ccc(Oc2ncccc2-c2cnccc2C)cc1 [I-419],≤ 0.1,≤ 0.1,
COc1cccc(Cl)c1-c1cccnc1Cc1ccc(C(F)(F)F)nc1 [I-441],≤ 0.1,≤ 0.1,
"COC(=O)c1ccccc1-c1cccnc1Oc1ccc(C(F)(F)F)nc1 [I-20, methyl 2-(2-{[6-(trifluoromethyl)pyridin-3-yl]oxy}pyridin-3-yl)benzoate]",0.2 to 0.78,1.56 to 6.25,
COc1ccccc1-c1cccnc1Oc1cnc(C(F)F)c(C)c1 [I-120],≤ 0.1,≤ 0.1,
"COCC(F)(F)c1ccc(Oc2ncccc2-c2cccc3ccnn23)cn1 [I-167, 7-(2-{[6-(1,1-difluoro-2-methoxyethyl)pyridin-3-yl]oxy}pyridin-3-yl)pyrazolo[1,5-a]pyridine]",0.2 to 0.78,0.2 to 0.78,
"CN(C/C=C/C#CC(C)(C)C)Cc1cccc2ccccc12 [TBF, terbinafine, reference compound]",≤ 0.1,≤ 0.1,D (D: <0.001)
